Assay results: patent US20100034757A1, “EXTRACT POWDER OF INDIGO PLANT, AND ITS PREPARATION AND USES” (priority 2006, published 2010)
Converted amounts (≈) assume the structure as drawn. Read-outs that look alike come from different tables or passages of the source.

What was measured:
mouse melanoma B16 cells [1] = experiment: Influence on melanin formation, blackening of cells (Test 1 for in vitro whitening effect, Experiment 3); type: cell-based; settings: medium containing 2.5 mM; cultured 72 hours
Protocol: Using a dried leaf of Polygonum tinctorium Lour., Japanese knotweed, buckwheat, or knotgrass as a plant of the family Polygonaceae, extract powders of which were prepared. The extract powders of indigo plant were prepared by the method in later described Example 2. According to the same method as in Example 2, using a dried leaf of Japanese knotweed, buckwheat, or knotgrass in place of the one of Polygonum tinctorium Lour., extract powders of the above plants were prepared for use in the following experiment, where, as an extract powder of indigo plant, the one prepared by the method in later described Example 2 was used, unless specified otherwise. […] After counting the number of viable cells, the viable cells were packed into a capillary tube for color observation. […] The degree of blackening of the B16 cells was evaluated based on the following criterion, and the results are in Table 3. Evaluations with Reference to the Blackening Degree of Control Free of Agent: −: Unchanged; ±: Slight inhibition of blackening; +: Positive inhibition of blackening; ++: Clear inhibition of blackening; +++: Complete inhibition of blackening.

mouse melanoma B16 cells [2] = experiment: Influence of extract powder and other skin-whitening ingredients on melanin formation (Test 2 for in vitro skin-whitening effect, Experiment 4); type: cell-based; parameters: Judgement, 1.25% extract powder of indigo plant: key to the marks not given beside the values; settings: 72 hours
Protocol: The following experiment was conducted to examine the influence of an extract powder of indigo plant and other ingredients with skin-whitening action on melanin formation. Mouse melanoma B16 cells were cultured for 24 hours, and to the resulting culture was added any one of the test solutions to give a composition ratio (%) of each of […], followed by culturing for 72 hours. The viable cells were counted and packed into a capillary tube for color observation. The judgement of the effects was evaluated based on the same criterion as in Experiment 1. In this experiment system, the effect in the case of culturing the cells with addition of 0.025% of the extract powder of indigo extract was judged to be “+”.

P. gingivalis = experiment: Minimum inhibitory concentration (MIC), Experiment 13; type: cell-based, Prophyromonas gingivalis; settings: for MIC: Porphyromonas gingivalis
Protocol: (§1) The following experiment was conducted to examine the influence of an extract powder of indigo plant on microorganisms in human oral cavity. An extract powder of indigo plant, prepared by the method in the later described Example 1, was dissolved in refined water to obtain an aqueous solution with a concentration of 1.5% indigo plant extract, d.s.b. Using the aqueous solution, the minimum inhibitory concentration (may be designated as “MIC”, hereinafter) against microorganisms in human oral cavity (microorganisms as causatives of periodontal diseases and dental caries) was determined. Tryptanthrin, gallic acid, and caffeic acid, which had been confirmed to be contained in the indigo extract, were determined for MIC against microorganisms in human oral cavity, and the data was shown in Table 9 in parallel. The following method was used for assaying MIC.
(§2) The MICs of an extract powder of indigo plant, tryptanthrin, gallic acid, and caffeic acid against microorganisms in human oral cavity were determined according to the standard method of Japanese Society of Chemotherapy (see “Saikin-Shinkin-Kensa (Test for Bacteria and Fungi), 2nd Edition”, pp. 524-529 (1982)). Examples of microorganisms, used as causatives of periodontal diseases, were microorganisms of Prophyromonas gingivalis strains such as JCM8525, JCM12257, and ATCC 33277 strains; those of Actinobacillus actinomycetemcomitans (may be abbreviated as “A. actinomycetemcomitans”) such as JCM2434 and JCM8577 strains; Prevotella intermedia (may be abbreviated as P. intermedia) JCM7365 strain; and Campylobacter rectus (may be abbreviated as C. rectus) JMC6301 strain. Examples of microorganisms, used as causatives of dental caries, were Streptococcus mutans strains such as OMZ-175, OMZ-176, OMZ-65, OMZ-61, B-13D, and Ingbritt strains; and Streptococcus sobrinus (may be abbreviated as “S. sobrinus”) 6715 strain. Among these microorganisms, those which are causatives of periodontal diseases were cultured at 37° C. for 48 hours, while those which are causatives of dental caries were cultured at 37° C. for 18 to 24 hours under anaerobic conditions by using a brain heart infusion (abbreviated as “BHI”, hereinafter), commercialized by Difco Laboratories, Detroit, USA, supplemented with 5 μg/ml of hemin, and 0.5 μg/ml of vitamin K3. The resulting cultures of the microorganisms, as causatives of both periodontal diseases and dental caries, were respectively diluted into solutions with 10^8 cells and 10^6 cells.

A. actinomycetemcomitans = experiment: as above; type: cell-based, Actinobacillus actinomycetemcomitans; settings: for MIC: Aggregatibacter actinomycetemcomitans, read-out: Minimum inhibitory concentration (MIC)
Protocol: as §1, §2

C. rectus = experiment: as above; type: cell-based; settings: Campylobacter rectus, read-out: Minimum inhibitory concentration (MIC)
Protocol: as §1, §2

P. intermedia = experiment: as above; type: cell-based; settings: Prevotella intermedia, read-out: Minimum inhibitory concentration (MIC)
Protocol: as §1, §2

S. mutans = experiment: as above; type: cell-based; settings: Streptococcus mutans
Protocol: as §1, §2

S. sobrinus = experiment: as above; type: cell-based; settings: Streptococcus sobrinus, read-out: Minimum inhibitory concentration (MIC)
Protocol: as §1, §2

[3] = ingredient 1.0% in combination with extract powder of indigo plant
[4] = ingredient 0.5% in combination with extract powder of indigo plant
[5] = strain JMC12257, read-out: Minimum inhibitory concentration (MIC)
[6] = strain B-13D, read-out: Minimum inhibitory concentration (MIC)
[7] = strain Ingbritt, read-out: Minimum inhibitory concentration (MIC)
[8] = strain OMZ-61, read-out: Minimum inhibitory concentration (MIC)
[9] = strain OMZ-65, read-out: Minimum inhibitory concentration (MIC)
[10] = strain OMZ-175, read-out: Minimum inhibitory concentration (MIC)
[11] = strain OMZ-176, read-out: Minimum inhibitory concentration (MIC)

**Q.** How did the “Judgement (inhibition of blackening of B16 cells)” value (mouse melanoma B16 cells [1]) turn out when `O=c1cc(CO)occ1O` [Kojic acid] was run?
**A.** +

**Q.** What about the “Judgement, With no extract powder of indigo plant” value (“Judgement, With no extract powder” for short) (mouse melanoma B16 cells [2]; composition ratio 1.0%) of the same compound?
**A.** +

**Q.** What about the “Judgement, 1.25% extract powder of indigo plant” value (from here on “Judgement, 1.25% extract powder”) (mouse melanoma B16 cells [2]; [3]) of the same compound?
**A.** +++

**Q.** What does the source list for `O=C1O[C@H]([C@@H](O)CO)C([O-])=C1O.[Na+]` [Sodium L-ascorbate]?
**A.** Judgement, With no extract powder of indigo plant (mouse melanoma B16 cells [2]; composition ratio 2.0%): +; Judgement, 1.25% extract powder of indigo plant (mouse melanoma B16 cells [2]; ingredient 2.0% in combination with extract powder of indigo plant): +++

**Q.** For `OC[C@H]1O[C@@H](Oc2ccc(O)cc2)[C@H](O)[C@@H](O)[C@@H]1O` [Arbutin], which “Judgement, With no extract powder” value (mouse melanoma B16 cells [2]; composition ratio 0.5%) is on record?
**A.** +

**Q.** And the “Judgement, 1.25% extract powder” value (mouse melanoma B16 cells [2]; [4])?
**A.** +++

**Q.** How did the “Judgement, With no extract powder” value (mouse melanoma B16 cells [2]; composition ratio 0.5%) turn out when `CCCCC/C=C\C/C=C\CCCCCCCC(=O)O` [Linoleic acid] was run?
**A.** ±

**Q.** And the “Judgement, 1.25% extract powder” value (mouse melanoma B16 cells [2]; [4])?
**A.** ++

**Q.** With `COc1cc(CCC(=O)CC(=O)CCc2ccc(O)c(OC)c2)ccc1O` [Tetrahydrocurcumin] as the compound, how does the “Judgement, With no extract powder” value (mouse melanoma B16 cells [2]; composition ratio 0.5%) read?
**A.** ±

**Q.** What about the “Judgement, 1.25% extract powder” value (mouse melanoma B16 cells [2]; [4]) of the same compound?
**A.** ++

**Q.** For `O=c1oc2c(O)c(O)cc3c(=O)oc4c(O)c(O)cc1c4c23` [Ellagic acid], which “Judgement, With no extract powder” value (mouse melanoma B16 cells [2]; composition ratio 0.5%) is on record?
**A.** ±

**Q.** What about the “Judgement, 1.25% extract powder” value (mouse melanoma B16 cells [2]; [4]) of the same compound?
**A.** ++

**Q.** With `CCCCc1ccc(O)cc1O` [4-n-Butylresorcinol] as the compound, how does the “Judgement, With no extract powder” value (mouse melanoma B16 cells [2]; composition ratio 0.5%) read?
**A.** +

**Q.** What about the “Judgement, 1.25% extract powder” value (mouse melanoma B16 cells [2]; [4]) of the same compound?
**A.** +++

**Q.** With `O=C(O)c1cc(O)c(O)c(O)c1` [Gallic acid] as the compound, how does the MIC (P. gingivalis; [5]) read?
**A.** 400 µg/mL (≈ 2350 µM)

**Q.** And the “Minimum inhibitory concentration (MIC)” value (P. gingivalis; strain JCM8525)?
**A.** 400 µg/mL (≈ 2350 µM)

**Q.** What about the “Minimum inhibitory concentration (MIC)” value (P. gingivalis; strain JMC33277) of the same compound?
**A.** 400 µg/mL (≈ 2350 µM)

**Q.** What about the MIC (A. actinomycetemcomitans; strain JMC2434) of the same compound?
**A.** 800 µg/mL (≈ 4700 µM)

**Q.** And the MIC (A. actinomycetemcomitans; strain JMC8577)?
**A.** 800 µg/mL (≈ 4700 µM)

**Q.** What about the MIC (C. rectus; strain JMC6301) of the same compound?
**A.** 400 µg/mL (≈ 2350 µM)

**Q.** And the MIC (P. intermedia; strain JMC7365)?
**A.** 400 µg/mL (≈ 2350 µM)

**Q.** What about the MIC (S. mutans; [6]) of the same compound?
**A.** 200 µg/mL (≈ 1180 µM)

**Q.** And the MIC (S. mutans; [7])?
**A.** 1600 µg/mL (≈ 9410 µM)

**Q.** And the MIC (S. mutans; [8])?
**A.** 200 µg/mL (≈ 1180 µM)

**Q.** What about the MIC (S. mutans; [9]) of the same compound?
**A.** 1600 µg/mL (≈ 9410 µM)

**Q.** And the MIC (S. mutans; [10])?
**A.** 400 µg/mL (≈ 2350 µM)

**Q.** And the MIC (S. mutans; [11])?
**A.** 400 µg/mL (≈ 2350 µM)

**Q.** And the MIC (S. sobrinus; strain 6715)?
**A.** 800 µg/mL (≈ 4700 µM)

**Q.** Which results are given for `O=C(O)/C=C/c1ccc(O)c(O)c1` [Caffeic acid]?
**A.** MIC (P. gingivalis; [5]): 400 µg/mL (≈ 2220 µM); Minimum inhibitory concentration (MIC) (P. gingivalis; strain JCM8525): 400 µg/mL (≈ 2220 µM); Minimum inhibitory concentration (MIC) (P. gingivalis; strain JMC33277): 400 µg/mL (≈ 2220 µM); MIC (A. actinomycetemcomitans; strain JMC2434): 400 µg/mL (≈ 2220 µM); MIC (A. actinomycetemcomitans; strain JMC8577): 200 µg/mL (≈ 1110 µM); MIC (C. rectus; strain JMC6301): 100 µg/mL (≈ 555 µM); MIC (P. intermedia; strain JMC7365): 400 µg/mL (≈ 2220 µM); MIC (S. mutans; [6]): 200 µg/mL (≈ 1110 µM); MIC (S. mutans; [7]): 1600 µg/mL (≈ 8880 µM); MIC (S. mutans; [8]): 400 µg/mL (≈ 2220 µM); MIC (S. mutans; [9]): 200 µg/mL (≈ 1110 µM); MIC (S. mutans; [10]): 400 µg/mL (≈ 2220 µM); MIC (S. mutans; [11]): 800 µg/mL (≈ 4440 µM); MIC (S. sobrinus; strain 6715): 800 µg/mL (≈ 4440 µM)

**Q.** How did the “Judgement, With no extract powder” value (mouse melanoma B16 cells [2]; composition ratio 1.0%) turn out when `NC[C@H]1CC[C@H](C(=O)O)CC1` [Tranexamic acid] was run?
**A.** ±

**Q.** And the “Judgement, 1.25% extract powder” value (mouse melanoma B16 cells [2]; [3])?
**A.** ++

**Q.** What does the source list for `COc1ccc(C(=O)[O-])c(O)c1.[K+]` [4-Methoxysalicylic acid potassium salt]?
**A.** Judgement, With no extract powder of indigo plant (mouse melanoma B16 cells [2]; composition ratio 1.0%): +; Judgement, 1.25% extract powder of indigo plant (mouse melanoma B16 cells [2]; [3]): +++

**Q.** For `O=C1c2ccccc2-n2c1nc1ccccc1c2=O` [Tryptanthrin], which MIC (P. gingivalis; read-out: Minimum inhibitory concentration (MIC), strain JMC8525) is on record?
**A.** 6.25 µg/mL (≈ 25.2 µM)

**Q.** What about the MIC (P. gingivalis; read-out: Minimum inhibitory concentration (MIC), strain JMC12257) of the same compound?
**A.** 12.5 µg/mL (≈ 50.4 µM)

**Q.** And the MIC (P. gingivalis; read-out: Minimum inhibitory concentration (MIC), strain JMC33277)?
**A.** 12.5 µg/mL (≈ 50.4 µM)

**Q.** And the MIC (A. actinomycetemcomitans)?
**A.** 25 µg/mL (≈ 101 µM)

**Q.** And the “Minimum inhibitory concentration (MIC)” value (A. actinomycetemcomitans; strain JMC2434)?
**A.** 25 µg/mL (≈ 101 µM)

**Q.** What about the MIC (C. rectus) of the same compound?
**A.** 25 µg/mL (≈ 101 µM)

**Q.** And the MIC (P. intermedia)?
**A.** 6.25 µg/mL (≈ 25.2 µM)

**Q.** What about the MIC (S. mutans; read-out: Minimum inhibitory concentration (MIC), strain B-13D) of the same compound?
**A.** 6.25 µg/mL (≈ 25.2 µM)

**Q.** What about the MIC (S. mutans; read-out: Minimum inhibitory concentration (MIC), strain Ingbritt) of the same compound?
**A.** 25 µg/mL (≈ 101 µM)

**Q.** And the MIC (S. mutans; read-out: Minimum inhibitory concentration (MIC), strain OMZ-61)?
**A.** 6.25 µg/mL (≈ 25.2 µM)

**Q.** What about the MIC (S. mutans; read-out: Minimum inhibitory concentration (MIC), strain OMZ-65) of the same compound?
**A.** 12.5 µg/mL (≈ 50.4 µM)

**Q.** And the MIC (S. mutans; read-out: Minimum inhibitory concentration (MIC), strain OMZ-175)?
**A.** 6.25 µg/mL (≈ 25.2 µM)

**Q.** And the MIC (S. mutans; read-out: Minimum inhibitory concentration (MIC), strain OMZ-176)?
**A.** 12.5 µg/mL (≈ 50.4 µM)

**Q.** And the MIC (S. sobrinus)?
**A.** 25 µg/mL (≈ 101 µM)
